Here are results for 7 molecules from patent EP0556720B1, “5-Aminoflavone derivatives” (KYOWA HAKKO KOGYO CO., LTD., priority 1992, dated 1993).

Experiment [1] concerns estrogen dependent human mammary cancer MCF-7. Description: Antitumor effects against estrogen dependent human mammary cancer MCF-7 transplanted subcutaneously in nude mice. The class given is in vivo, female BALB/C-nu/nu mice. The note with it: orally, five days per week for four weeks, ratio of V/V0 of treated group to control group. Here is the method:
Antitumor effects against estrogen dependent human mammary cancer MCF-7
Tumor strips (2mm x 2 mm x 2mm) of human hormone dependent mammary cancer MCF-7 were transplanted subcutaneously in the ventral part of female BALB/C-nu/nu mice (Nihon Crea), 7-9 weeks age. For promoting the growth of tumor, 12.5 µg of estradiol was intramuscularlly administered three times in the femoral region on the date of transplantation and 7 and 14 days after transplantation. 7 Days after transplantation, mice the tumor volume of which increased to 10-100 mm^3 were selected, and test compounds were orally administered repeatedly for five days per a week, for four weeks, at five animals per group. Length and breadth of the tumor were determined, and the tumor volumes were calculated by means of ellipsoid approximation according to the following equation: (Tumor volume […]= {Length (mm) x [Breadth (mm)])^2 }/2 [formula]
The tumor volume (V0) at initial administration was determined. The tumor volume (V) was determined after initiation to calculate V/V0 from which the ratio (T/C), that is, the ratio of V/V0 value of treated group relative to that of control group was obtained.

The next experiment relates to HeLaS3 cells. Description: Human uterine cervix carcinoma (HeLaS3) growth inhibition test, neutral red staining. The class given is cell-based. The note with it: HeLa S3, 72 hours culture with sample, absorbance at 550 nm. Here is the method:
Human uterine cervix carcinoma (HeLaS3) growth inhibition test;
Each 0.1 ml of HeLaS3 cells which had been prepared to 3 x 10^4/ml using a medium (referred to as Medium A hereinafter) consisted of MEM medium, 2 mM glutamine and 10% bovine fetal serum was distributed in each well of 96 well-microtiter plate. The plate was cultured at 37 °C for 20 hours in a CO2 gas incubator, each 0.05 ml of samples (test compounds) which had been appropriately diluted with Medium A was added thereto and the mixture was cultured at 37 °C for 72 hours in a CO2 gas incubator. Supernatant was removed, each 0.1 ml of Medium A containing 0.02% neutral red was added to the residue, the mixture was cultured at 37 °C for 1 hour in a CO2 gas incubator and the cells were stained. Supernatant was removed and the residue was washed once with saline. Then, the pigment was extracted with 0.001N hydrochloric acid/30% ethanol and the absorbance at 550 nm was measured with a microplatereader.

A further experiment relates to Bacillus subtilis #10107. Description: Antibacterial activity, minimum inhibition concentration by agar dilution method. The class given is cell-based. Particulars: agar dilution method at pH 7.0. How it is done:
Antibacterial activity of the compound (I) against Bacillus subtilis #10107 [Minimum Inhibition Concentration (MIC; µg/ml)] is shown in Table 2. Minimum Inhibition Concentration was determined by agar dilution method at pH 7.0.
(Agar dilution tests growth on a series of plates holding different concentrations.)

The test system of another experiment is MCF-7 cells. Description: Human mammary cancer (MCF-7) growth inhibition test, neutral red staining. The class given is cell-based. Particulars: MCF7, medium with 10^-8M estradiol, 72 hours culture with sample. How it is done:
Human mammary cancer (MCF-7) growth inhibition test;
Each 0.1 ml of MCF-7 cells which had been prepared to 5 x 10^4/ml using a medium (referred to as Medium B hereinafter) prepared by adding 10% bovine fetal serum, 10^-8M estradiol (manufactured by Sigma), 100 units/ml penicillin and 100 µg/ml streptomycin to medium RPMI1640 was distributed in each well of 96 well-microtiter plate. The plate was cultured at 37 °C for 20 hours in a CO2 gas incubator, each 0.05 ml of samples (test compounds) which had been appropriately diluted with Medium B was added thereto and the mixture was cultured at 37 °C for 72 hours in a CO2 gas incubator. Supernatant was removed, each 0.1 ml of Medium B containing 0.02% neutral red was added to the residue, the mixture was cultured at 37 °C for 1 hour in a CO2 gas incubator and the cells were stained. IC50 was calculated according to the same manner as that in Test 2.

Converted amounts (≈) assume the structure as drawn.

What is called IC50 is the concentration at which inhibition is half-maximal. Turning to `Nc1ccc(-c2cc(=O)c3c(N)c(F)cc(F)c3o2)cc1` [Compound 12, 5-Amino-2-(4-aminophenyl)-6,8-difluoro-4H-1-benzopyran-4-one], the T/C in experiment [1] (Dose 6.3 mg/kg, Date 22) amounted to 0.45. The molecule further had a 50% inhibitory concentration (IC50) with HeLaS3 cells of 10 µM.
One may read the MIC as the lowest concentration that inhibits growth of the organism. The low end stands for inhibition by little substance, the high end for a need for much substance. The molecule `NCCCNc1ccc(-c2cc(=O)c3c(N)c(F)ccc3o2)cc1` [Compound 16, 5-Amino-2-[4-[(3-aminopropyl)amino]phenyl]-6-fluoro-4H-1-benzopyran-4-one] gave a minimum inhibitory concentration (MIC) against Bacillus subtilis #10107 of 5.2 µg/mL (≈ 15.9 µM). This molecule had a concentration for half-maximal inhibition (IC50) in the experiment on HeLaS3 cells of 5.8 µM.
In turn, `NCCCNc1ccc(-c2cc(=O)c3c(N)c(F)cc(F)c3o2)cc1` [Compound 24, 5-Amino-2-[4-[(3-aminopropyl)amino]phenyl]-6,8-difluoro-4H-1-benzopyran-4-one] returned an MIC with Bacillus subtilis #10107 of 2.6 µg/mL (≈ 7.53 µM). This molecule gave an IC50 with HeLaS3 cells of 3.4 µM.
Consider `Nc1ccc(-c2cc(=O)c3c(N)c(F)cc(F)c3o2)cc1F` [Compound 26, 5-Amino-2-(4-amino-3-fluorophenyl)-6,8-difluoro-4H-1-benzopyran-4-one], for which the T/C in experiment [1] (Dose 25 mg/kg, Date 29) came out at 0.45. Also, the IC50 in the experiment with HeLaS3 cells came out at 26 µM.
Consider `CN(C)CCCCCCNc1ccc(-c2cc(=O)c3c(N)c(F)cc(F)c3o2)cc1F` [Compound 53, 5-Amino-6,8-difluoro-2-[4-[6-(N',N'-dimethylamino)hexylamino]-3-fluorophenyl]-4H-1-benzopyran-4-one], for which the figures for the IC50 with HeLaS3 cells and in the experiment with MCF-7 cells were 6.8 µM and 6.2 µM, respectively.
In the same order, the values of `Nc1c(F)cc(F)c2oc(-c3ccc(NCCCCCCN4CCCC4)c(F)c3)cc(=O)c12` [Compound 54, 5-Amino-6,8-difluoro-2-[3-fluoro-4-[6-(pyrrolidin-1-yl)hexylamino]phenyl]-4H-1-benzopyran-4-one] are 6.1 µM and 5.9 µM.
For `CCCCCCNc1c(F)cc(F)c2oc(-c3ccc(NCC(=O)OCC)c(F)c3)cc(=O)c12` [Compound 74, 6,8-Difluoro-2-(4-ethoxycarbonylmethylamino-3-fluorophenyl)-5-hexylamino-4H-1-benzopyran-4-one], the half-inhibitory concentration (IC50) amounted to 12 µM with HeLaS3 cells and 9.2 µM in the experiment on MCF-7 cells.
